Measurements taken from patent US20240173341A1, “COMPOSITION FOR AMELIORATING OR TREATING DEMENTIA CONTAINING 2'-FUCOSYLLACTOSE” (Advanced Protein Technologies Corp., priority 2022, published 2024).

Legend:
[1] = tested on: TNF-α; test: Neuroinflammatory marker analysis (ELISA), TNF-α; type: in vivo, mouse; conditions: 2′-FL-administered dementia group compared to the dementia group; FIG. 12
Description: (§1) The experimental animals used herein were 24-week-old 5×FAD (Aβ plaques) Alzheimer's models. The experimental animals were raised at a temperature of 22±3° C., at a relative humidity of 30±10%, and at an illuminance of 150 to 300 Lux for a lighting period of 12 hours (08:00˜20:00), and five or less animals were raised in each polycarbonate cage. The distilled water (DW)-administered group was used as a negative control (vehicle), and a donepezil-administered group was used as a positive control. The term “dementia group” refers to 5×FAD mice administered distilled water, and the term “normal group” refers to wild-type mice administered distilled water. The concentrations of neuroinflammatory cytokines, TNF-α and IL-6 in mouse brain tissue homogenates were analyzed using enzyme-linked immunosorbent assay (ELISA).

[2] = tested on: phosphorylated tau protein; test: Tau protein hyperphosphorylation analysis (IHC); type: in vivo, mouse
Description: The experimental animals used herein were 24-week-old 5×FAD (Aβ plaques) Alzheimer's models. The experimental animals were raised at a temperature of 22±3° C., at a relative humidity of 30±10%, and at an illuminance of 150 to 300 Lux for a lighting period of 12 hours (08:00˜20:00), and five or less animals were raised in each polycarbonate cage. The distilled water (DW)-administered group was used as a negative control (vehicle), and a donepezil-administered group was used as a positive control. The term “dementia group” refers to 5×FAD mice administered distilled water, and the term “normal group” refers to wild-type mice administered distilled water. Hyperphosphorylation (p-tau) of tau protein was analyzed through image observation based on immunohistochemistry (IHC) using an antibody that detects tau protein expressed in mouse brain tissue and phosphorylated tau protein.

[3] = tested on: 5×FAD (Aβ plaques) Alzheimer's models; test: Y-maze test; type: in vivo, mouse; conditions: 5×FAD mice, oral 8 weeks, all concentrations, compared to the dementia group; n=8~12, FIG. 6
Description: (§2) The experimental animals used herein were 24-week-old 5×FAD (Aβ plaques) Alzheimer's models. The experimental animals were raised at a temperature of 22±3° C., at a relative humidity of 30±10%, and at an illuminance of 150 to 300 Lux for a lighting period of 12 hours (08:00˜20:00), and five or less animals were raised in each polycarbonate cage.
The distilled water (DW)-administered group was used as a negative control (vehicle), and a donepezil-administered group was used as a positive control. The term “dementia group” refers to 5×FAD mice administered distilled water and the term “normal group” refers to wild-type mice administered distilled water. […]
Specifically, the arms of the Y-maze were randomly designated as A, B, and C, the mouse was placed on one arm and allowed to move freely for 5 minutes, and then the arm where the mouse entered was recorded. This record was limited to cases where the tail thereof completely entered, and cases where it entered the same arm again were also recorded (FIG. 5). […]
The case where the mouse entered three different arms one after another was given one point (actual alteration). Alteration behavior is defined as a case where the mouse enters all of three arms in turn and the result was calculated in accordance with Equation 1 below (maximum change: total number of entries—2).

[4] = tested on: wild-type mice; test: Water maze test, normal group; type: in vivo, mouse; conditions: oral 8 weeks, compared to distilled water (vehicle), FIGS. 2 and 3
Description: The distilled water (DW)-administered group was used as a negative control (vehicle), and a donepezil-administered group was used as a positive control. The term “dementia group” refers to 5×FAD mice administered distilled water and the term “normal group” refers to wild-type mice administered distilled water. 2′-FL was orally administered at various concentrations to wild-type and 5×FAD mouse groups for 8 weeks and then a water maze test was performed. Specifically, a circular water tank with a diameter of 150 cm and a height of 60 cm was filled to a height of 30 cm with water, and an escape platform was installed in one area of the four quadrants of the tank. During the training period, the escape platform was placed 1 cm below the surface of the water in the tank so that it was invisible, training was repeated at the identical water entry point three times a day, and recording was performed using a video tracking system (SMART v3.0 panlab SL). When the experimental animal reached the escape platform within 60 seconds, it was allowed to stay on the escape platform for 15 seconds, and when it could not find the escape platform, it was guided to the escape platform by hand and trained to stay on the escape platform alone for 20 seconds. […] At this time, the time (sec) to first reach the location of the escape platform and the number of target crossings were recorded (FIG. 1). […]

[5] = tested on: 5×FAD (Aβ plaques) Alzheimer's models; test: Water maze test, dementia group; type: in vivo, mouse
Description: The experimental animals used herein were 24-week-old 5×FAD (Aβ plaques) Alzheimer's models. The experimental animals were raised at a temperature of 22±3° C., at a relative humidity of 30±10%, and at an illuminance of 150 to 300 Lux for a lighting period of 12 hours (08:00˜20:00), and five or less animals were raised in each polycarbonate cage. The distilled water (DW)-administered group was used as a negative control (vehicle), and a donepezil-administered group was used as a positive control. The term “dementia group” refers to 5×FAD mice administered distilled water and the term “normal group” refers to wild-type mice administered distilled water. 2′-FL was orally administered at various concentrations to wild-type and 5×FAD mouse groups for 8 weeks and then a water maze test was performed. Specifically, a circular water tank with a diameter of 150 cm and a height of 60 cm was filled to a height of 30 cm with water, and an escape platform was installed in one area of the four quadrants of the tank. During the training period, the escape platform was placed 1 cm below the surface of the water in the tank so that it was invisible, training was repeated at the identical water entry point three times a day, and recording was performed using a video tracking system (SMART v3.0 panlab SL). When the experimental animal reached the escape platform within 60 seconds, it was allowed to stay on the escape platform for 15 seconds, and when it could not find the escape platform, it was guided to the escape platform by hand and trained to stay on the escape platform alone for 20 seconds. In the probe test on the 6th day, the escape platform was removed and the experimental animals were allowed to swim freely for 60 seconds. At this time, the time (sec) to first reach the location of the escape platform and the number of target crossings were recorded (FIG. 1). FIG. 1 is a schematic diagram illustrating the water maze test method.

[6] = tested on: IL-6; test: Neuroinflammatory marker analysis (ELISA), IL-6; type: in vivo, mouse; conditions: 2′-FL-administered dementia group compared to the dementia group; FIG. 13
Description: as §1

[7] = tested on: amyloid beta accumulated in mouse brain tissue; test: Amyloid beta accumulation analysis (thioflavin staining of cleared brain tissue); type: in vivo; conditions: for Ab number / Ab number/volume: oral, 5×FAD mice
Description: as §2
The term “dementia group” refers to 5×FAD mice administered distilled water, and the term “normal group” refers to wild-type mice administered distilled water.
For the amyloid beta accumulated in mouse brain tissue, brain tissue over 1 mm in size was made transparent using a tissue transparency technique, stained with thioflavin, imaged in three dimensions, and then quantified as plaques for each brain region using the Imaris program.
In addition, three 1 mm-thick brain tissues were collected from each group, the volumes thereof were measured, and the total number of accumulated amyloid beta was measured.

[8] = 2′-FL 300 group, 1st brain tissue
[9] = 2′-FL 300 group, 2nd brain tissue
[10] = 2′-FL 300 group, 3rd brain tissue
[11] = 2′-FL 600 group, 1st brain tissue
[12] = 2′-FL 600 group, 2nd brain tissue
[13] = 2′-FL 600 group, 3rd brain tissue
[14] = 2′-FL 1200 group, 1st brain tissue
[15] = 2′-FL 1200 group, 2nd brain tissue
[16] = 2′-FL 1200 group, 3rd brain tissue

## 2′-fucosyllactose [2′-FL]
[1]
  concentration of TNF-α: significantly decreased
[2]; brain cortex of dementia group, n=8~12, FIG. 10
  inhibition of tau protein hyperphosphorylation: no significant effect
[2]; brain hippocampus of dementia group, n=8~12, FIG. 11
  inhibition of tau protein hyperphosphorylation: no significant effect
[3]
  spontaneous alteration (SA): significantly increased SA
[4]
  time to arrive at the escape platform during the water maze training period: reduced the time to arrive at the escape platform
[5]; 5th day of water maze training, 2′-FL-administered dementia group compared to the dementia group, FIG. 4
  arrival route to the escape platform: simplified
[5]; all concentrations, 2′-FL-administered dementia group compared to the dementia group
  spatial memory through training: significantly improved spatial memory
[5]; dementia group (5×FAD mice), oral 8 weeks, compared to distilled water (vehicle), FIGS. 2 and 3
  time to arrive at the escape platform during the water maze training period: reduced the time to arrive at the escape platform
[6]
  concentration of IL-6: significantly decreased
[7]; [8]
  Ab number: 23900
  Ab number/volume: 8628
[7]; [9]
  Ab number: 26900
  Ab number/volume: 9642
[7]; [10]
  Ab number: 42000
  Ab number/volume: 12174
[7]; 2′-FL 300 group, Avr. of three brain tissues
  Ab number: 30933
[7]; 2′-FL 300 group, Avr. of three brain tissues, *p ≤ 0.05 vs. Vehicle
  Ab number/volume: 10148*
[7]; [11]
  Ab number: 32000
  Ab number/volume: 11722
[7]; [12]
  Ab number: 38400
  Ab number/volume: 11852
[7]; [13]
  Ab number: 20800
  Ab number/volume: 5762
[7]; 2′-FL 600 group, Avr. of three brain tissues
  Ab number: 30400
[7]; 2′-FL 600 group, Avr. of three brain tissues, *p ≤ 0.05 vs. Vehicle
  Ab number/volume: 9778*
[7]; [14]
  Ab number: 34300
  Ab number/volume: 10719
[7]; [15]
  Ab number: 31900
  Ab number/volume: 7800
[7]; [16]
  Ab number: 37000
  Ab number/volume: 12092
[7]; 2′-FL 1200 group, Avr. of three brain tissues
  Ab number: 34400
[7]; 2′-FL 1200 group, Avr. of three brain tissues, *p ≤ 0.05 vs. Vehicle
  Ab number/volume: 10203*
[7]; brain cortex of dementia group, n=8-12, FIG. 7
  amyloid beta accumulation: decrease in amyloid beta accumulation
[7]; brain hippocampus of dementia group, n=8-12, FIG. 8
  amyloid beta accumulation: decrease in amyloid beta accumulation
[7]; dementia group, three 1 mm-thick brain tissues per group, Table 1, FIG. 9
  accumulation of amyloid beta throughout the brain: significantly inhibited
